# Where two headings read alike, the source gives them in different places.
# How the values were obtained:
# [1] = biological target: T1, GppNHp-loaded KRAS4b (amino acids 1-169) G12C/C118S protein (Homo sapiens, UniProt P01116, C118S/G12C); assay: Covalent cysteine 12 modification by MALDI-TOF MS, GppNHp-loaded KRAS G12C; assay type: binding; conditions: 15 minutes reaction time point
# T1 construct: KRAS4b (amino acids 1-169) G12C/C118S protein; made in house
# Experimental: (§1) Reaction: 1 μM of GppNHp-, GTP-, or GDP-loaded KRAS4b (amino acids 1-169) G12C/C118S protein (produced in-house by Protein Expression Laboratory, FNLCR/Leidos Biomed) in 20 mM 4-(2-hydroxyethyl)-1-piperazineethanesulfonic acid (HEPES) buffer containing 150 mM NaCl, 1 mM MgCl2, pH 7.3 was prepared freshly before assay. Ten-μL aliquots of protein were dispensed onto low volume 384-well plate, then 375 nL DMSO, and 25 nL of tested compounds from 5 mM DMSO stocks were added to appropriate wells using ECHO 555 acoustic liquid handler (Labcyte Inc.). For each reaction/assay, three blanks were prepared by mixing 10 μL of protein solution with 400 nL DMSO. The contents of the wells were carefully mixed by aspiration, and then each plate was sealed with an adhesive cover, centrifuged at 2000 g for 1 minute, and kept in the dark at room temperature until 5 min, 15 min, 30 min, or 2 h collections.
# (§2) Target pretreatment: Before each assay MALDI target (Bruker MPT 384 ground steel BC) was pre-treated by pipetting on each spot 0.75 μL of saturated sinapinic acid in acetonitrile (ACN).
# (§3) Sample preparation: At collection time point, 2 μL of reaction mixtures were pipetted out into 20 μL MALDI matrix solution (saturated solution of sinapinic acid in 1:1 ACN:water solution containing 0.75% trifluoroacetic acid (TFA)) deposited on 384 well polypropylene plate. Resulting solution was mixed by aspiration, centrifuged at 2000 g for 1 minute, then 1 μL aliquots were dispensed on pre-treated MALDI target using Beckman Coulter Biomek FXP 96/384-Span-8 Laboratory Automation Workstation. Finally, the MALDI target was dried under mild vacuum to produce spots with fine crystalline structure.
# (§4) Measurements: MALDI-TOF measurements were performed on a Bruker Daltonics rapiflex Tissuetyper TOF-TOF mass spectrometer using linear mode and mass range from 18.6 to 21.6 kDa. Detector gain was set to 3.3× (483 V), sample rate to 5 GS/s, real time smoothing to medium (175 MHz), laser smart beam pattern was set to: “MS Thin Layer M5”, and the laser frequency was 10000 Hz. Spectra were automatically collected using custom Auto Xecute method. Laser power was auto adjusted using fuzzy control. The peak selection range was set to be between 19000 and 21500 Da. Peak evaluation uses half width parameter set to be smaller than 40 Da for processed spectrograms (centroid peak detection; smoothed by SavitzkyGolay algorithm using 7 m/z width and 2 cycles; baseline was subtracted using median algorithm with flatness 1 and median level 0.01). Fuzzy control used Proteins/Oligonucleotides protocol with minimum half width 1/10 times above threshold. Up to 40000 satisfactory shots were collected in 10000 shot steps. Dynamic termination was implemented to finish data collection when peak signal/noise ratio was reaching value of 50.
# (§5) Spectra processing: Spectra were smoothed by SavitzkyGolay algorithm using 7 m/z width and three cycles. Centroid peak detection algorithm was used with signal to noise threshold set to 6, relative intensity threshold 4%, peak width 10 m/z and median baseline subtraction using flatness of 1 and median level of 0.01. Peak intensity and area under the peak were evaluated and recorded for all peaks between 19,300 Da and 21,550 Da.
# (§6) Calculation of percent modification: Percent modification was calculated as a ratio of peak height for protein modified by compound to sum of peak height of remaining protein plus peak height for protein modified by compound. If multiple modifications were observed each was calculated as a ratio of peak height for given modification versus sum of peak heights for all observed protein species. Data reported in Table 5 are from 15 minutes reaction time point.
# [2] = biological target: T2, GDP-loaded KRAS4b (amino acids 1-169) G12C/C118S protein (Homo sapiens, UniProt P01116, C118S/G12C); assay: Covalent cysteine 12 modification by MALDI-TOF MS, GDP-loaded KRAS G12C; assay type: binding; conditions: 15 minutes reaction time point
# T2 construct: KRAS4b (amino acids 1-169) G12C/C118S protein; made in house
# Experimental: as §1, §2, §3, §4, §5, §6
# [3] = biological target: T3, Avi-KRAS G12C (1-169) GppNHp/RAF1 RBD-3×FLAG (52-151) (Homo sapiens, UniProt P01116, G12C); assay: Raf1 RBD-KRAS G12C-GppNHp disruption (protein:protein interaction HTRF assay); assay type: biochemical
# T3 construct: Avi-KRAS G12C (1-169) GppNHp/RAF1 RBD-3×FLAG (52-151)
# Experimental: A protein: protein (PPI) interaction Homogeneous Time Resolved Fluorescence (HTRF) assay was used to determine the effectiveness of compounds of the present disclosure in disrupting KRAS G12C protein and effector (RAF1 or PIK3CA) binding.
# The HTRF assay used the following reagents and proteins: 50 nM Avi-KRAS G12C Q25A (1-169) GppNHp/3×FLAG-PI3K CA (157-299); 50 nM Avi-KRAS G12C (1-169) GppNHp/RAF1 RBD-3×FLAG (52-151); 35 nM Avi-PI3K RBD-3×FLAG; Assay Buffer: 50 mM Tris pH 7.5, 100 mM NaCl, 5 mM MgCl2, 0.1% BSA, 0.01% Tween 20, 10% DMSO; Bead Buffer: 50 mM Tris pH 7.5, 0.01% Tween 20; Assay volume: 20 μL (384 well plate-low volume format); and Compound titration: 30-0.02 μM, 3× dilution series.
# The HTRF assay employed the following protocol:
# Compounds were dispensed in assay plate (384-well, Grenier Bione #784075) using Echo (model 555) with dose response settings: 200 nL final volume, titration from 100 μM as a 10-point dilution series. KRAS proteins were prepared in assay buffer, and dispensed on plates, 5 μL per well, then incubated for 1 h at room temperature, with 700 rpm shaking. RAF1 RBD and PI3K RBD CA were prepared in assay buffer, dispensed onto plates, 5 μL per well, and then incubated for 1 h at room temperature, with 700 rpm shaking. Reagent mix was then prepared and dispensed on plates, 10 μL per well, and then incubated for 1 h at room temperature, with 700 rpm shaking.
# Plates were analyzed on an Envision plate reader using the following setting: Excitation 320 nm, Bandwidth 75 nm; Emission 615 nm, Bandwidth 85 nm; Gain 100%; Flashes 100; Lag 60 μs. Data was reported as percentage of activity, with DMSO as 100%. Data was plotted and analyzed using Prism 8.
# [4] = test system: pERK in NCI-H358 cells; assay: Cell-based pERK HTRF assay; conditions: 30 min incubation, read-out: pERK in NCI-H358 cell inhibition IC50
# Experimental: pERK assays (Perkin Elmer) were used to determine the effectiveness of compounds of the present disclosure in disrupting KRAS G12C protein/effector signaling in cells.
# On Day 1, cells (NCI-H358) were seeded into 96-well plates at 4×10^4 cells/well in complete growth media (RPMI, 10% FBS).
# On Day 2, cells were treated with compounds at 0.25% DMSO. The source plate was created with compounds diluted in media at 5-fold the final assay concentration. The compounds were run in a 9-point concentration curve starting at 75 μM, with a 3-fold dilution between concentrations. 20 μL was transferred onto the cell plates (final volume in wells was 100 μL). Plates were harvested after 30 min incubation by aspirating media and adding kit-supplied 1× supplemented lysis buffer to all wells (75 μl per well). Plates were then placed on a plate shaker and incubated at 850 rpm for an additional 30 min.
# Antibody mixture solution was prepared by diluting aliquoted d2 and Eu Cryptate antibodies 1:20 in kit supplied detection buffer, then mixed the diluted antibodies solutions (1:1 v:v). 4 μL of this solution was then added to a 384-well detection plate (Perkin Elmer; 6008230).
# Samples were homogenized by pipetting up and down and then transferred (16 μL of cell lysates) from the 96-well cell culture plate to two wells of the HTRF 384-well detection plate containing the antibody solution. Plates were centrifuged (524 g for Imin) and allowed to incubate between 4 and 24 h at room temperature. Maximum signal is reached after 4 h incubation time and remains stable over a period of 24 hours. Therefore, readings can be made between 4 and 24 h of incubation. Plates were centrifuged again (524 g for Imin) and analyzed on the En Vision plate reader using the following settings: Excitation 320 nm, Bandwidth 75 nm; Emission 615 nm, Bandwidth 85 nm; Gain 100%; Flashes 100; Lag 60 μs.
Structure (SMILES),GppNHp-KRAS G12C percent of modification [1],GDP-KRAS G12C percent of modification [2],IC50 [3],IC50 [4],"IC50 ([4]; Homo sapiens, NCI-H358, 0.5 h)"
"C=CC(=O)N1CC[C@@H](Oc2nc(OC[C@@H]3C[C@@H](OC)CN3C)nc3c(F)c(-c4ccc(F)c5sc(N)nc45)c(C(F)(F)F)cc23)C1 (single isomer, unassigned) [Compound 14]",B (50≤percent of modification <70%),A (percent of modification ≥70%),≤ 500 nM,≤ 100 nM,
"C=CC(=O)N1C[C@@H](C)[C@@H](Oc2nc(OC[C@@]34CCCN3C[C@H](F)C4)nc3c(F)c(-c4ccc(F)c5sc(N)nc45)c(C(F)(F)F)cc23)C1 (atropisomer, axis not shown) [Compound 39]",C (10%≤modification <50%),C (10%≤modification <50%),500 to 5000 nM,100 to 1000 nM,
C=CC(=O)N1CC(Oc2nc(OC[C@@H]3CCCN3C)nc3c(F)c(-c4ccc(F)c5sc(N)nc45)c(C(F)(F)F)cc23)C1 [Compound 22],C (10%≤modification <50%),A (percent of modification ≥70%),≤ 500 nM,,≤ 100 nM
"C=CC(=O)N1CC[C@@H](Oc2nc(OC[C@@]34CCCN3C[C@H](F)C4)nc3c(F)c(-c4ccc(F)c5sc(N)nc45)c(C(F)(F)F)cc23)[C@@H]1C (atropisomer, axis not shown) [Compound 42]",D (percent of modification <10%),D (percent of modification <10%),> 20000 nM,> 1000 nM,
"C=CC(=O)N1CC[C@@H](Oc2nc(OC[C@]34CCCN3C[C@H](OC)C4)nc3c(F)c(-c4ccc(F)c5sc(N)nc45)c(C(F)(F)F)cc23)C1 (single isomer, unassigned) [Compound 31]",D (percent of modification <10%),D (percent of modification <10%),500 to 5000 nM,> 1000 nM,
"C=CC(=O)N1CC[C@@H](Oc2nc(OC[C@@]34CCCN3C[C@H](F)C4)nc3c(F)c(-c4ccc(F)c5sc(N)nc45)c(C(F)(F)F)cc23)C1 (single isomer, unassigned) [Compound 11]",A (percent of modification ≥70%),A (percent of modification ≥70%),≤ 500 nM,,≤ 100 nM
C=CC(=O)N1CC[C@@H](Oc2nc(OC[C@@]34CCCN3C[C@H](F)C4)nc3c(F)c(-c4ccc(F)c5sc(N)nc45)ncc23)C1 [Compound 43],C (10%≤modification <50%),A (percent of modification ≥70%),500 to 5000 nM,,> 1000 nM
"C=CC(=O)N1C[C@@H](F)[C@@H](Oc2nc(OC[C@@]34CCCN3C[C@H](F)C4)nc3c(F)c(-c4ccc(F)c5sc(N)nc45)c(C(F)(F)F)cc23)C1 [Compound 40, 1-((3S,4R)-3-((7-(2-amino-7-fluorobenzo[d]thiazol-4-yl)-8-fluoro-2-(((2R,7aS)-2-fluorotetrahydro-1H-pyrrolizin-7a (5H)-yl)methoxy)-6-(trifluoromethyl)quinazolin-4-yl)oxy)-4-fluoropyrrolidin-1-yl) prop-2-en-1-one]",A (percent of modification ≥70%),A (percent of modification ≥70%),≤ 500 nM,,≤ 100 nM
C=CC(=O)N1CC(Oc2nc(OC[C@@H]3C[C@@H](OC)CN3C)nc3c(F)c(-c4ccc(F)c5sc(N)nc45)c(C(F)(F)F)cc23)C1 [Compound 26],C (10%≤modification <50%),A (percent of modification ≥70%),500 to 5000 nM,,≤ 100 nM
"C=CC(=O)N1C[C@H](Oc2nc(OC[C@@]34CCCN3C[C@H](F)C4)nc3c(F)c(-c4ccc(F)c5sc(N)nc45)c(C(F)(F)F)cc23)C[C@H]1C (atropisomer, axis not shown) [Compound 38]",D (percent of modification <10%),D (percent of modification <10%),500 to 5000 nM,100 to 1000 nM,
C=CC(=O)N1CC[C@@H](Oc2nc(OC[C@@H]3CCCN3C)nc3c(F)c(-c4ccc(F)c5sc(N)nc45)c(C(F)(F)F)cc23)C1 [Compound 13],B (50≤percent of modification <70%),A (percent of modification ≥70%),≤ 500 nM,,100 to 1000 nM

# Reference: patent US20250188085A1, “COMPOSITIONS AND METHODS FOR INHIBITION OF RAS” (THERAS, INC., priority 2022, published 2025)
